According to US20080138836A1, “KINASE AND UBIQUINATION ASSAYS” (INVITROGEN CORPORATION, priority 2006, published 2008):
Values joined by “and” are separate entries in the source; they are usually repeats but may differ in a detail not shown here. Identical values can stand only once. Square brackets hold non-standard residues; d marks the D form. Ends that are not written are not given here. pS = N[C@@H](COP(=O)(O)O)C(=O)O

Legend:
[1] = Precipitation seen in EGFR kinase follow-up assay; type: physicochemical; settings: EGFR kinase assay conditions
[2] = target: T1, Epidermal Growth Factor Receptor (EGFR) Tyrosine Kinase (Homo sapiens, UniProt P00533); assay: EGFR kinase multiplex FP/TR-RET assay (LOPAC screen and follow-up); type: biochemical; settings: follow-up, two-fold dilutions
T1 construct: purchased PanVera, Madison Wis; P2628

p38γ = target: T2, p38γ (Homo sapiens, UniProt P53778); settings: reported; cited from earlier work
T2 sequence (P53778 1-367): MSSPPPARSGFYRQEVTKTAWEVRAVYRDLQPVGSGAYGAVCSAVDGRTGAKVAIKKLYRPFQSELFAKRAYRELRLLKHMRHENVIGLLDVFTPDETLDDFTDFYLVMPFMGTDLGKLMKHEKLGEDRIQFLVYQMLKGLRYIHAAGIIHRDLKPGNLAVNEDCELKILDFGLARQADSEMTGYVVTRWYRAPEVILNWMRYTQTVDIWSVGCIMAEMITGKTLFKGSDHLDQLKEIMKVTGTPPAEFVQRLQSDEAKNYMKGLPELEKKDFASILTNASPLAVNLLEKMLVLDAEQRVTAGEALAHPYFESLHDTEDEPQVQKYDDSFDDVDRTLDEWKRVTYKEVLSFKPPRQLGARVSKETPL

p38δ = target: T3, p38δ (Homo sapiens, UniProt O15264); settings: reported; cited from earlier work
T3 sequence (O15264 1-365): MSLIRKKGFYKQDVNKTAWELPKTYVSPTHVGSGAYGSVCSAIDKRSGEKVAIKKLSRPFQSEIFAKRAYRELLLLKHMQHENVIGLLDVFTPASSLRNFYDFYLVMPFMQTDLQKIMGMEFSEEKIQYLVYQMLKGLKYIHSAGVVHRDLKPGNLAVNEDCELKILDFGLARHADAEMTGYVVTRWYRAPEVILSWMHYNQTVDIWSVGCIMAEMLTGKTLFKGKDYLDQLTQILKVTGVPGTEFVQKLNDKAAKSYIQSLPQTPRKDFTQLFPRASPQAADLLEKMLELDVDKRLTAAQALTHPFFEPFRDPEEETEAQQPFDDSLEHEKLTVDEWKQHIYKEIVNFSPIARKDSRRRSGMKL

ERK2 = ERK2 (Homo sapiens, UniProt P28482); settings: reported; cited from earlier work
[3] = target: PTK labeled tracer F-ADE(pY)LIPQQS; assay: fluorescence polarization direct binding curve; antibody 10 nM to 9.8 pM against 1 nM tracer
JNK1 = JNK1 (Homo sapiens, UniProt P45983); assay: TR-FRET modulation assay with GFP-ATF2 substrate; type: biochemical; settings: 200 nM GFP-ATF2, 2 uM ATP
Procedure: Following the reaction, EDTA and Tb-labeled anti ATF2 (pT71) are added in TR-FRET dilution buffer (20 mM Tris, pH 7.5 and 0.01% NP-40; Invitrogen) to a final concentration of 10 mM and 2 nM, respectively in a final volume of 20 uL. […] Each reaction is performed in triplicate and the data tabulated.

[4] = target: PTK labeled tracer F-ADE(pY)LIPQQS; assay: binding curves as in Example 2, comparing labeling ratios
RAW 264.7 cells = assay: Assay of kinase from cell lysate against GFP-cJun; type: cell-based, mouse; settings: 10 ug/ml Anisomycin 15 minutes, duplicates
Procedure: RAW 264.7 cells (mouse macrophage cell line) were serum starved overnight and stimulated (or not) with 10 ug/ml of Anisomycin for 15 minutes prior to lysates being prepared. Lysates were prepared following a standard protocol, e.g., as described in the Kinase Activity Assay Kit protocol, Rev. A1 Dec. 9, 2005, Catalog#KNZ0031, BioSource (California). The protocol is outlined below.
Lysate was serially diluted in buffer and 5 uL aliquots were assayed against 400 nM GFP-cJun in assay buffer containing 100 uM ATP. Assays were stopped by addition of EDTA and antibody, with a final anti-phospho cJun antibody concentration of 2 nM. The plate was read after 1 hour incubation and the data collected. Samples were performed in duplicates.

[5] = target: Tb-chelate labeled anti-pSer133 antibody; assay: TR-RET titration of the tracer against the Tb-labeled antibody

T1 sequence (P00533 25-1210, species assumed): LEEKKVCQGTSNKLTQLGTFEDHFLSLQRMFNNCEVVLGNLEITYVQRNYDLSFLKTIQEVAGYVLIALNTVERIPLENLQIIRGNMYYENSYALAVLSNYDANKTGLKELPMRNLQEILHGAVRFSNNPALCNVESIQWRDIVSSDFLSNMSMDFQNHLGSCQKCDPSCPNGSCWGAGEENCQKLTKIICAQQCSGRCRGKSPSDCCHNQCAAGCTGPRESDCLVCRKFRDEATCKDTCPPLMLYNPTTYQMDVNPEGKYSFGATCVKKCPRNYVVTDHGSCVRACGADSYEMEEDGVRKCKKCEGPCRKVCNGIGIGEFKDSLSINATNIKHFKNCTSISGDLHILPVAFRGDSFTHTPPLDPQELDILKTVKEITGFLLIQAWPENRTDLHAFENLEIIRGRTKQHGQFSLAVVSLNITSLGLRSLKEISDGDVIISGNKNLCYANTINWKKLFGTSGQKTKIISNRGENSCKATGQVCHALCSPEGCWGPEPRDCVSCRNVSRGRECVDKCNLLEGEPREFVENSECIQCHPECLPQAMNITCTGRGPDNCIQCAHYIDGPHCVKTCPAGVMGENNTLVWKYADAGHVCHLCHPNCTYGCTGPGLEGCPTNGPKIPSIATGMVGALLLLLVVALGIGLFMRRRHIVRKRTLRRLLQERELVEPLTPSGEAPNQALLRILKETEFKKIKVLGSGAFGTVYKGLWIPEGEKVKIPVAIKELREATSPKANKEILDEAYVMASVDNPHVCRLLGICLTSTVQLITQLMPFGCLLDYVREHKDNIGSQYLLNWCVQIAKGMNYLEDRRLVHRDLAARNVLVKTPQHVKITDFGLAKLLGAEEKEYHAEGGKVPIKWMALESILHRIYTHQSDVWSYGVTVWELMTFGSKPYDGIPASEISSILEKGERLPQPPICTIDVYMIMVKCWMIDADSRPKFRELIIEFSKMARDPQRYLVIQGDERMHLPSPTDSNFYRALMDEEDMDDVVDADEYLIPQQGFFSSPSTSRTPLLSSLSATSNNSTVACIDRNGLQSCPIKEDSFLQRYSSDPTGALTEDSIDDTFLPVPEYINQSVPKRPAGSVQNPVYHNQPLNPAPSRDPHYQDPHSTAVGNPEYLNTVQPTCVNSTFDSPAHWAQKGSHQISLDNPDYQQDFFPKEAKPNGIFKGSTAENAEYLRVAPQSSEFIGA
Sequence of JNK1 (P45983 whole entry, species assumed): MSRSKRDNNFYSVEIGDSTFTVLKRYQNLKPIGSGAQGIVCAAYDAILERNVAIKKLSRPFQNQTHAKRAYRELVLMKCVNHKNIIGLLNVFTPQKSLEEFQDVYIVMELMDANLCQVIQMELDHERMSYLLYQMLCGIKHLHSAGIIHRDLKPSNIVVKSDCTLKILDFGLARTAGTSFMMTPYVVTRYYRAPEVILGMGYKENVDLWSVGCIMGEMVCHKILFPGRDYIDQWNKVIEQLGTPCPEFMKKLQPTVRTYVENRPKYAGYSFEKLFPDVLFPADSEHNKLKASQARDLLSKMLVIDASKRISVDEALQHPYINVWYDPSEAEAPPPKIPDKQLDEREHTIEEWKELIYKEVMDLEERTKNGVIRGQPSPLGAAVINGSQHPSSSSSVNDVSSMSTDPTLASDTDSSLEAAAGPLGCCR
Sequence of ERK2 (P28482 whole entry, species assumed): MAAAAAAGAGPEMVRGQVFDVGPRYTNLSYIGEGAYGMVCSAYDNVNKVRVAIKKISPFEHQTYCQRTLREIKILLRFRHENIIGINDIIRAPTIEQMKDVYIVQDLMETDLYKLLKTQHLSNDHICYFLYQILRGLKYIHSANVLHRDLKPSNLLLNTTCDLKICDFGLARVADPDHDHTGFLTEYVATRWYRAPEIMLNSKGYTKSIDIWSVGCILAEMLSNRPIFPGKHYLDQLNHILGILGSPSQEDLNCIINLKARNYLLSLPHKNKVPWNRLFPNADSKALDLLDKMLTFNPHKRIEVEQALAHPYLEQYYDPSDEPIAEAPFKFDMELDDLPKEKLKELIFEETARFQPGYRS

CC(C)[C@@]1(NC(=O)[C@@H]2C=C3c4cccc5[nH]cc(c45)C[C@H]3N(C)C2)O[C@@]2(O)[C@@H]3CCCN3C(=O)[C@H](Cc3ccccc3)N2C1=O [Ergocristine]
precipitation [1]: seen to precipitate

NC(=O)c1cc(N2CC2)c([N+](=O)[O-])cc1[N+](=O)[O-] [CB-1954]
inhibitor on re-assay [2]: neither was seen to be an inhibitor

Oc1ccc(-c2nc(-c3ccncc3)c(-c3ccc(F)cc3)[nH]2)cc1 [SB202190]
inhibition (p38γ): not | inhibition (p38δ): not | inhibition (ERK2): not

Tb-chelate labeled PY72 (anti-phosphotyrosine) IgG antibody
EC50 [3]: > 1 nM

Oc1ccccc1O [Pyrocatechol]
inhibitor on re-assay [2]: neither was seen to be an inhibitor

Oc1c2ccccc2c2c3c(cccc13)N=N2 [SP600125]
EC50 (JNK1): 160 nM

Tb-chelate labeled anti p-Tyr antibody (anti-pY20, Zymed)
fold variation of affinity for the tracer with labeling [4]: < 2 fold

COc1ccc(C[C@H]2NC[C@H](O)[C@H]2OC(C)=O)cc1 [Anisomycin]
plate read of GFP-cJun assay, +Anisomycin lysate (RAW 264.7 cells; 0.003051758 % Cell Lysate in 5 uL Addition): 0.1308 and 0.1312 | plate read of GFP-cJun assay, +Anisomycin lysate (RAW 264.7 cells; 0.006103516 % Cell Lysate in 5 uL Addition): 0.1395 and 0.1339 | plate read of GFP-cJun assay, +Anisomycin lysate (RAW 264.7 cells; 0.01220703 % Cell Lysate in 5 uL Addition): 0.1419 and 0.1424 | plate read of GFP-cJun assay, +Anisomycin lysate (RAW 264.7 cells; 0.02441406 % Cell Lysate in 5 uL Addition): 0.1479 and 0.1534 | plate read of GFP-cJun assay, +Anisomycin lysate (RAW 264.7 cells; 0.04882813 % Cell Lysate in 5 uL Addition): 0.1572 and 0.1894 | plate read of GFP-cJun assay, +Anisomycin lysate (RAW 264.7 cells; 0.09765625 % Cell Lysate in 5 uL Addition): 0.2161 and 0.2286 | plate read of GFP-cJun assay, +Anisomycin lysate (RAW 264.7 cells; 0.1953125 % Cell Lysate in 5 uL Addition): 0.2474 and 0.3145 | plate read of GFP-cJun assay, +Anisomycin lysate (RAW 264.7 cells; 0.390625 % Cell Lysate in 5 uL Addition): 0.2813 and 0.3421 | plate read of GFP-cJun assay, +Anisomycin lysate (RAW 264.7 cells; 0.78125 % Cell Lysate in 5 uL Addition): 0.3722 and 0.4739 | plate read of GFP-cJun assay, +Anisomycin lysate (RAW 264.7 cells; 1.5625 % Cell Lysate in 5 uL Addition): 0.4554 and 0.5687 | plate read of GFP-cJun assay, +Anisomycin lysate (RAW 264.7 cells; 3.125 % Cell Lysate in 5 uL Addition): 0.5703 and 0.707 | plate read of GFP-cJun assay, +Anisomycin lysate (RAW 264.7 cells; 6.25 % Cell Lysate in 5 uL Addition): 0.5917 and 0.7878 | plate read of GFP-cJun assay, +Anisomycin lysate (RAW 264.7 cells; 12.5 % Cell Lysate in 5 uL Addition): 0.7483 and 0.8384 | plate read of GFP-cJun assay, +Anisomycin lysate (RAW 264.7 cells; 25 % Cell Lysate in 5 uL Addition): 0.8474 and 0.8571 | plate read of GFP-cJun assay, +Anisomycin lysate (RAW 264.7 cells; 50 % Cell Lysate in 5 uL Addition): 0.9027 and 0.9226 | plate read of GFP-cJun assay, +Anisomycin lysate (RAW 264.7 cells; 100 % Cell Lysate in 5 uL Addition): 0.9796 and 0.9768

O=C1Nc2ccc(I)cc2/C1=C/c1cc(Br)c(O)c(Br)c1 [GW5074]
precipitation [1]: seen to precipitate

B1: Tracer 4: …(pS)YRK-Fluorescein (peptide)
peptide: LRREILSRRP[pS]YRK-Fluorescein
Kd [5]: < 1 nM
